Test results reported in patent publication US10228381B2, “Additive channels” (Emulate Inc., priority 2016, dated 2019).
“Also recorded” adds a separate entry of the source. Positions of bridges follow the written chain, without caps; N, C: chain ends. Non-standard residues stand in square brackets, D forms with d. Residues, ends and D or L forms follow the SMILES beside them. hArg = N=C(N)NCCCC[C@H](N)C(=O)O; Mpa = O=C(O)CCS

Columns and labels:
[1] = system: fibrin deposition on HUVEC endothelium; test: Vessel-On-Chip blood perfusion, fibrin deposition by fluorescence imaging; type: cell-based, human; settings: for fibrin signal intensity (fibrin deposition on the endothelium): endothelial pre-treatment TNF-α 50 ng/ml 6 hours, or sCollagen 10 μg/ml in blood; for fibrin deposition on the endothelium compared to untreated blood: hu5C8 240 μg/mL, sCD40L 10 ng/ml, 4 donors, 60 μl/minute
Description: (§1) Adding Blood to a Vessel-On-Chip And Flow Conditions: A medical grade plastic reservoir was mounted on the chip, then 800 μl of the blood sample was pipetted into the reservoir. The chip was perfused with the blood by withdrawing it at a rate of 60 μl/minute using a syringe pump. The citrated blood was re-calcified 2 minutes after the beginning of each experiment by adding 100 μl/ml of a solution containing 100 mM calcium chloride and 75 mM magnesium chloride to the blood to permit calcium- and magnesium -dependent platelet function and coagulation.
Visualizing Fibrin Deposition: When analyzing the formation of fibrin, 10 μg/ml of fluorescently labeled fibrinogen (Alexa 488, Invitrogen) was also added to the blood. While fluorescent fibrinogen was barely detected as a diffused fluorescence, fibrin deposition on inflamed cells and sparse clots was easily distinguished since fibrin formed filamentous structures produce a signal intensity that is clearly observed above a background threshold.
(§2) Fluorescence Image Analysis: Chips perfused with blood samples were immediately imaged via fluorescence microscopy (Olympus IX83, 10× objective UPLFLN10X2 , Orca-Flash4.0 CMOS Camera). Each chamber was inspected along its entire length and 5 images (about 0.25 cm) were captured from the central area of the chamber. Image processing and quantification was performed with an automatic macro compiled in ImageJ and numerical values corresponding to platelet coverage or fibrin florescence were collected and statistically analyzed in Graphpad Prism V7.

[2] = system: platelets in human whole blood on HUVEC endothelium; test: Vessel-On-Chip blood perfusion, platelet coverage by fluorescence imaging; type: cell-based; settings: for areas of platelet coverage (platelet aggregation on the endothelium): endothelial pre-treatment TNF-α 50 ng/ml 6 hours, or sCollagen 10 μg/ml in blood; for platelet aggregate formation compared to untreated blood: hu5C8 240 μg/mL, sCD40L 10 ng/ml, 4 donors, 60 μl/minute
Description: Platelets: Platelets were labeled with human CD41-PE antibody (10 μL/ml, Invitrogen) directly added to the blood and incubated at room temperature for 5 minutes.
as §1, §2
Platelet Coverage: A percentage of signal coverage (or Platelet coverage) was computed from the binary image as the ratio of bright pixels to the total number of pixels in the image. Image processing and quantification was performed with an automatic macro compiled in ImageJ in order to ensure unbiased signal measurements. Numerical values corresponding to platelet coverage or fibrin fluorescence (signal intensity) were collected and statistically analyzed in Graphpad Prism V7.

[3] = system: human whole blood on HUVEC endothelium; test: Vessel-On-Chip thrombosis, all endpoints together (platelet coverage, fibrin deposition, TAT); type: cell-based; settings: adding Eptifibatide; n=4 donors
[4] = system: thrombin anti-thrombin complex (TAT); test: Thrombin-Anti Thrombin (TAT) ELISA in chip effluent; type: cell-based, human; settings: FIG. 22B; plasma from blood flowing out of the chip
Description: Thrombin-Anti Thrombin (TAT) Measurement via ELISA: Thrombin Anti-Thrombin (TAT) levels were analyzed in plasma from blood flowing out of the chip device by removing a sample from the outflow port. Thus TAT levels were evaluated in sample effluents collected from the outflow port of the chip using the Human TAT ELISA Kit (Siemens Healthineers) according to the user manual.

[5] = system: blood clots on endothelium; test: Imaging of blood clots formed on-chip (SEM, micrographs, 3D movie); type: cell-based, human; settings: after blood perfusion
Description: Scanning Electron Microscopy Sample Pre-treatment and Imaging: Immediately after fluorescence imaging, the chips were fixed in 2.5% glutaraldehyde in 100 mM sodium cacodylate buffer for 2 hours at room temperature. Then, the samples were washed and post fixed in 1% osmium tetroxide for 1 hour at room temperature. After the postfixation, the samples were dehydrated in series dilutions of ethanol and finally completely dried in a Critical point dryer (Tousimus Autosamsri-815). After mounting, the samples were gold sputtered using a Sputter coating system (Hummer 6.2) and imaged by SEM (Jeol 5600LV).

[6] = Eptifibatide 2 ug/ml, endothelium inflamed with TNF-α, n=4
[7] = Eptifibatide 2 ug/ml, following treatment with sCollagen, n=4

Question: Which results are given for `N=C(N)NCCCC[C@@H]1NC(=O)CCSSC[C@@H](C(N)=O)NC(=O)[C@@H]2CCCN2C(=O)[C@H](Cc2c[nH]c3ccccc23)NC(=O)[C@H](CC(=O)O)NC(=O)CNC1=O` [Eptifibatide] ([Mpa][hArg]GDWPC-NH2; disulfide 1-7)?
Answer: fibrin clot formation [1, 6]: significantly inhibited; inhibitory effect on fibrin clot formation [1, 7]: comparatively modest; fibrin signal (image analysis of multiple experiments) ([1]; Eptifibatide 2 ug/ml, samples treated with TNF-α): significant amount of fibrin signal was still detectable; platelet aggregation [2, 6]: significantly inhibited; inhibitory effect on platelet aggregation [2, 7]: comparatively modest; platelet adhesion (image analysis of multiple experiments) ([2]; Eptifibatide 2 ug/ml, n=4): completely inhibited; pro-thrombotic effects (platelet coverage, fibrin deposition) of TNF-α and sCollagen / thrombotic events [3]: suppressed; also recorded: inhibited

Question: With “sCollagen: soluble collagen (Soluble Calf Skin, Type I), a standard platelet activator” as the molecule, how does the “fibrin signal intensity (fibrin deposition on the endothelium)” value [1] read?
Answer: The value was “increased”.

Question: And the “levels of TAT in outflow samples” value [4]?
Answer: Its value is “minimally increased; also recorded: elevated levels”.

Question: What about the “areas of platelet coverage (platelet aggregation on the endothelium)” value [2] of the same molecule?
Answer: Its value is “increased”.

Question: And the “structure of blood clots formed on-chip” value [5]?
Answer: Its value is “meshwork of complex fibrin-rich clots that incorporated red blood cells and platelets; also recorded: high number of larger aggregates containing a platelet rich core decorated with fibrin”.

Question: Which “fibrin signal intensity (fibrin deposition on the endothelium)” value [1] does the source give for TNF-α here?
Answer: The value was “increased”.

Question: And the “levels of TAT in outflow samples” value [4]?
Answer: Its value is “significantly increased; also recorded: elevated levels”.

Question: And the “areas of platelet coverage (platelet aggregation on the endothelium)” value [2]?
Answer: Its value is “increased”.

Question: What about the “structure of blood clots formed on-chip” value [5] of the same molecule?
Answer: Its value is “compact clots composed of red blood cells and platelets, surrounded by fibrin; also recorded: high number of larger aggregates containing a platelet rich core decorated with fibrin”.

B1: hu5C8: humanized monoclonal IgG1 antibody against CD40L, alternatively named anti-sCD40L or anti-CD154 (antibody, chains of the INN, looked up, V domains shown)
VH: QVQLVQSGAEVVKPGASVKLSCKASGYIFTSYYMYWVKQAPGQGLEWIGEINPSNGDTNFNEKFKSKATLTVDKSASTAYMELSSLRSEDTAVYYCTRSDGRNDMDSWGQGTLVTVSS
VL: DIVLTQSPATLSVSPGERATISCRASQRVSSSTYSYMHWYQQKPGQPPKLLIKYASNLESGVPARFSGSGSGTDFTLTISSVEPEDFATYYCQHSWEIPPTFGGGTKLEIK
Question: Which “fibrin deposition on the endothelium compared to untreated blood” value [1] does the source give for B1 here?
Answer: The value was “no significant treatment-related effects”.

Question: What about the “platelet aggregate formation compared to untreated blood” value [2] of the same molecule?
Answer: The value was “no significant treatment-related effects”.

B2: sCD40L: soluble CD40 ligand; recombinant human sCD40 Ligand (protein, UniProt P29965 113-261, looked up)
CD40 ligand, soluble form: MQKGDQNPQIAAHVISEASSKTTSVLQWAEKGYYTMSNNLVTLENGKQLTVKRQGLYYIYAQVTFCSNREASSQAPFIASLCLKSPGRFERILLRAANTHSSAKPCGQQSIHLGGVFELQPGASVFVNVTDPSQVSHGTGFTSFGLLKL
modifications: CD40 ligand, soluble form
Question: B2 was tested. Which “fibrin deposition on the endothelium compared to untreated blood” value [1] did it give?
Answer: The value was “no significant treatment-related effects”.

Question: What about the “platelet aggregate formation compared to untreated blood” value [2] of the same molecule?
Answer: The value was “no significant treatment-related effects”.

Question: What about the “platelet coverage, fold-increase over untreated control” value ([2]; in some donors, sCD40L alone) of the same molecule?
Answer: The value was “about 2 fold”.

Question: And the “mean increase in platelet coverage compared to controls” value ([2]; sCD40L alone, up to 15 donors)?
Answer: The value was “not statistically significant”.
